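Results reflect a 48-hour exposure of cells in 96-well plates to compound at five concentrations. TGI: concentration producing complete growth inhibition.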
Assays:
Assay in all cases: inhibition of tumour cell growth, NCI panel, 48 h
OVCAR-4 ovarian = tested on: OVCAR-4 ovarian
NCI-H226 lung = tested on: NCI-H226 lung
LOX IMVI melanoma = tested on: LOX IMVI melanoma
HCC-2998 colon = tested on: HCC-2998 colon
SR leukemia = tested on: SR leukemia
MOLT-4 leukemia = tested on: MOLT-4 leukemia
OVCAR-3 ovarian = tested on: OVCAR-3 ovarian
MALME-3M melanoma = tested on: MALME-3M melanoma
SK-OV-3 ovarian = tested on: SK-OV-3 ovarian
UACC-62 melanoma = tested on: UACC-62 melanoma
DMS 273 small cell lung = tested on: DMS 273 small cell lung
COLO 205 colon = tested on: COLO 205 colon
786-0 renal = tested on: 786-0 renal
SN12C renal = tested on: SN12C renal
A549 NSCLC = tested on: A549 NSCLC
SF-295 CNS = tested on: SF-295 CNS
KM12 colon = tested on: KM12 colon
IGROV1 ovarian = tested on: IGROV1 ovarian
M19-MEL melanoma = tested on: M19-MEL melanoma
LXFL 529 NSCLC = tested on: LXFL 529 NSCLC
CCRF-CEM leukemia = tested on: CCRF-CEM leukemia
HT29 colon = tested on: HT29 colon
SK-MEL-28 melanoma = tested on: SK-MEL-28 melanoma
NCI-H23 lung = tested on: NCI-H23 lung
M14 melanoma = tested on: M14 melanoma
RPMI-8226 leukemia = tested on: RPMI-8226 leukemia
HL-60(TB) leukemia = tested on: HL-60(TB) leukemia
DMS 114 small cell lung = tested on: DMS 114 small cell lung
SF-539 CNS = tested on: SF-539 CNS
NCI-H522 lung = tested on: NCI-H522 lung
A498 renal = tested on: A498 renal
SK-MEL-5 melanoma = tested on: SK-MEL-5 melanoma
SNB-75 CNS = tested on: SNB-75 CNS
XF 498 CNS = tested on: XF 498 CNS
HOP-92 NSCLC = tested on: HOP-92 NSCLC
SF-268 CNS = tested on: SF-268 CNS
DLD-1 colon = tested on: DLD-1 colon
UO-31 renal = tested on: UO-31 renal
CAKI-1 renal = tested on: CAKI-1 renal
UACC-257 melanoma = tested on: UACC-257 melanoma
SNB-78 CNS = tested on: SNB-78 CNS
SNB-19 CNS = tested on: SNB-19 CNS
TK-10 renal = tested on: TK-10 renal
HOP-62 NSCLC = tested on: HOP-62 NSCLC
SW-620 colon = tested on: SW-620 colon
OVCAR-8 ovarian = tested on: OVCAR-8 ovarian
HCT-116 colon = tested on: HCT-116 colon
EKVX NSCLC = tested on: EKVX NSCLC
SK-MEL-2 melanoma = tested on: SK-MEL-2 melanoma
K-562 leukemia = tested on: K-562 leukemia
RXF 393 renal = tested on: RXF 393 renal
NCI-H460 lung = tested on: NCI-H460 lung
ACHN renal = tested on: ACHN renal
OVCAR-5 ovarian = tested on: OVCAR-5 ovarian
U251 CNS = tested on: U251 CNS
HCT-15 colon = tested on: HCT-15 colon
KM20L2 colon = tested on: KM20L2 colon

O=S1(=O)OCCOS(=O)(=O)C1(I)I
TGI (OVCAR-4 ovarian): 48.9 µM
TGI (NCI-H226 lung): 29.7 µM
TGI (LOX IMVI melanoma): 30.5 µM
TGI (HCC-2998 colon): 35.2 µM
TGI (SR leukemia): 49.1 µM
TGI (MOLT-4 leukemia): 56.9 µM
TGI (OVCAR-3 ovarian): 73.8 µM
TGI (MALME-3M melanoma): 37.6 µM
TGI (SK-OV-3 ovarian): 47.2 µM
TGI (UACC-62 melanoma): 30.3 µM
TGI (DMS 273 small cell lung): 47.3 µM
TGI (COLO 205 colon): 37.8 µM
TGI (786-0 renal): 35 µM
TGI (SN12C renal): 38.2 µM
TGI (A549 NSCLC): 71.1 µM
TGI (SF-295 CNS): 90.8 µM
TGI (KM12 colon): 40.8 µM
TGI (IGROV1 ovarian): 63.8 µM
TGI (M19-MEL melanoma): 53.8 µM
TGI (LXFL 529 NSCLC): 27.3 µM
TGI (CCRF-CEM leukemia): 35.6 µM
TGI (HT29 colon): 69.4 µM
TGI (SK-MEL-28 melanoma): 55.2 µM
TGI (NCI-H23 lung): 27.9 µM
TGI (M14 melanoma): 50.7 µM
TGI (RPMI-8226 leukemia): 36.8 µM
TGI (HL-60(TB) leukemia): 68.3 µM
TGI (DMS 114 small cell lung): 43.9 µM
TGI (SF-539 CNS): 40.1 µM
TGI (NCI-H522 lung): 45.2 µM
TGI (A498 renal): 30.3 µM
TGI (SK-MEL-5 melanoma): 30 µM
TGI (SNB-75 CNS): 48.7 µM
TGI (XF 498 CNS): 37.5 µM
TGI (HOP-92 NSCLC): 29.8 µM
TGI (SF-268 CNS): 74.7 µM
TGI (DLD-1 colon): 35.8 µM
TGI (UO-31 renal): 33.3 µM
TGI (CAKI-1 renal): 35.7 µM
TGI (UACC-257 melanoma): 46.3 µM
TGI (SNB-78 CNS): 86.4 µM
TGI (SNB-19 CNS): 55.3 µM
TGI (TK-10 renal): 70.3 µM
TGI (HOP-62 NSCLC): 38.9 µM
TGI (SW-620 colon): 39.3 µM
TGI (OVCAR-8 ovarian): 59.5 µM
TGI (HCT-116 colon): 29.9 µM
TGI (EKVX NSCLC): 59 µM
TGI (SK-MEL-2 melanoma): 39.5 µM
TGI (K-562 leukemia): 74.6 µM

CC(=O)O[C@H]1CC[C@@]2(C)C(=CC[C@@H]3C2CC[C@]2(C)Nc4c(cnn4-c4ccccc4)CC32)C1 (some centres not stated)
TGI (OVCAR-4 ovarian): 66.9 µM
TGI (NCI-H226 lung): > 100 µM
TGI (HCC-2998 colon): 70.8 µM
TGI (RXF 393 renal): 42.2 µM
TGI (OVCAR-3 ovarian): > 100 µM
TGI (MALME-3M melanoma): > 100 µM
TGI (SK-OV-3 ovarian): > 100 µM
TGI (UACC-62 melanoma): > 100 µM
TGI (DMS 273 small cell lung): 18.4 µM
TGI (786-0 renal): 36.6 µM
TGI (A549 NSCLC): > 100 µM
TGI (SF-295 CNS): 8.52 µM
TGI (NCI-H460 lung): > 100 µM
TGI (KM12 colon): 69.8 µM
TGI (IGROV1 ovarian): > 100 µM
TGI (M19-MEL melanoma): > 100 µM
TGI (LXFL 529 NSCLC): > 100 µM
TGI (CCRF-CEM leukemia): > 100 µM
TGI (ACHN renal): > 100 µM
TGI (HT29 colon): > 100 µM
TGI (SK-MEL-28 melanoma): > 100 µM
TGI (OVCAR-5 ovarian): > 100 µM
TGI (U251 CNS): > 100 µM
TGI (NCI-H23 lung): > 100 µM
TGI (M14 melanoma): > 100 µM
TGI (HCT-15 colon): > 100 µM
TGI (RPMI-8226 leukemia): 6.62 µM
TGI (HL-60(TB) leukemia): > 100 µM
TGI (DMS 114 small cell lung): > 100 µM
TGI (SF-539 CNS): 9.12 µM
TGI (A498 renal): 51.9 µM
TGI (SK-MEL-5 melanoma): > 100 µM
TGI (SNB-75 CNS): 30.8 µM
TGI (XF 498 CNS): > 100 µM
TGI (DLD-1 colon): > 100 µM
TGI (UO-31 renal): 84 µM
TGI (CAKI-1 renal): > 100 µM
TGI (UACC-257 melanoma): > 100 µM
TGI (SNB-78 CNS): > 100 µM
TGI (KM20L2 colon): > 100 µM
TGI (TK-10 renal): > 100 µM
TGI (HOP-62 NSCLC): 63.9 µM
TGI (SW-620 colon): > 100 µM
TGI (OVCAR-8 ovarian): > 100 µM
TGI (HCT-116 colon): > 100 µM
TGI (EKVX NSCLC): > 100 µM
TGI (SK-MEL-2 melanoma): > 100 µM
